These are literature values, as cited in patent US6491657B2, “Ultrasound enhancement of transdermal transport” (Sontra Medical, Inc., priority 1996, dated 2002).

Each structure is given as a SMILES string.

The conditions of this data set: with ethanol as chemical enhancer.

Consider `C[C@]12CC[C@@H]3c4ccc(O)cc4CC[C@H]3[C@@H]1CC[C@@H]2O` [estradiol], for which the flux increase was 140 fold.
